Assay results: ChEMBL document CHEMBL4138123, “Design, synthesis and biological evaluation of novel pyrazolochalcones as potential modulators of PI3K/Akt/mTOR pathway and inducers of apoptosis in breast cancer cells” (Eur J Med Chem, 2017)

How the values were obtained:
Type in all cases: functional
RPMI-8226 = assay: Cytotoxicity against human RPMI8226 cells assessed as cell growth at 10 uM after 48 hrs by sulforhodamine B assay relative to control; conditions: RPMI-8226, 48 h, read-out: Activity
T47D [1] = assay: Cytotoxicity against human T47D cells assessed as growth inhibition after 48 hrs by sulforhodamine B assay
HCC 2998 = assay: Cytotoxicity against human HCC2998 cells assessed as cell growth at 100 uM after 48 hrs by sulforhodamine B assay relative to control; conditions: HCC 2998, 48 h, read-out: Activity
KM12 [2] = assay: Cytotoxicity against human KM12 cells assessed as cell growth at 0.01 uM after 48 hrs by sulforhodamine B assay relative to control; conditions: KM12, 48 h, read-out: Activity
UACC-62 = assay: Cytotoxicity against human UACC62 cells assessed as cell growth at 1 uM after 48 hrs by sulforhodamine B assay relative to control; conditions: UACC-62, 48 h, read-out: Activity
SK-MEL-5 = assay: Cytotoxicity against human SK-MEL-5 cells assessed as cell growth at 100 uM after 48 hrs by sulforhodamine B assay relative to control; conditions: SK-MEL-5, 48 h, read-out: Activity
PC-3 [3] = assay: Cytotoxicity against human PC3 cells assessed as cell growth at 0.1 uM after 48 hrs by sulforhodamine B assay relative to control; conditions: PC-3, 48 h, read-out: Activity
Hs-578T = assay: Cytotoxicity against human Hs 578T cells assessed as cell growth at 100 uM after 48 hrs by sulforhodamine B assay relative to control; conditions: read-out: Activity
SK-MEL-28 = assay: Cytotoxicity against human SK-MEL-28 cells assessed as growth inhibition after 48 hrs by sulforhodamine B assay; conditions: SK-MEL-28, 48 h
COLO 205 = assay: Cytotoxicity against human COLO205 cells assessed as cell growth at 1 uM after 48 hrs by sulforhodamine B assay relative to control; conditions: COLO 205, 48 h, read-out: Activity
SF-539 [4] = assay: Cytotoxicity against human SF539 cells assessed as cell growth at 0.1 uM after 48 hrs by sulforhodamine B assay relative to control; conditions: SF-539, 48 h, read-out: Activity
IGROV-1 = assay: Cytotoxicity against human IGROV1 cells assessed as cell growth at 1 uM after 48 hrs by sulforhodamine B assay relative to control; conditions: IGROV-1, 48 h, read-out: Activity
TK-10 [5] = assay: Cytotoxicity against human TK10 cells assessed as cell growth at 10 uM after 48 hrs by sulforhodamine B assay relative to control; conditions: TK-10, 48 h, read-out: Activity
T47D [6] = assay: Cytotoxicity against human T47D cells assessed as cell growth at 0.1 uM after 48 hrs by sulforhodamine B assay relative to control; conditions: read-out: Activity
SN12C [7] = assay: Cytotoxicity against human SN12C cells assessed as cell growth at 0.1 uM after 48 hrs by sulforhodamine B assay relative to control; conditions: read-out: Activity
CCRF-CEM [8] = assay: Cytotoxicity against human CCRF-CEM cells assessed as cell growth at 10 uM after 48 hrs by sulforhodamine B assay relative to control; conditions: read-out: Activity
T47D [9] = assay: Cytotoxicity against human T47D cells assessed as cell growth at 0.01 uM after 48 hrs by sulforhodamine B assay relative to control; conditions: read-out: Activity
NCI-H460 = assay: Cytotoxicity against human NCI-H460 cells assessed as cell growth at 0.1 uM after 48 hrs by sulforhodamine B assay relative to control; conditions: NCI-H460, 48 h, read-out: Activity
MDA-MB-468 = assay: Cytotoxicity against human MDA-MB-468 cells assessed as cell growth at 100 uM after 48 hrs by sulforhodamine B assay relative to control; conditions: MDA-MB-468, 48 h, read-out: Activity
U-251 = assay: Cytotoxicity against human U251 cells assessed as cell growth at 0.01 uM after 48 hrs by sulforhodamine B assay relative to control; conditions: U-251, 48 h, read-out: Activity
SN12C [10] = assay: Cytotoxicity against human SN12C cells assessed as cell growth at 10 uM after 48 hrs by sulforhodamine B assay relative to control; conditions: read-out: Activity
HCT-116 = assay: Cytotoxicity against human HCT116 cells assessed as cell growth at 0.01 uM after 48 hrs by sulforhodamine B assay relative to control; conditions: HCT-116, 48 h, read-out: Activity
TK-10 [11] = assay: Cytotoxicity against human TK10 cells assessed as cell growth at 0.1 uM after 48 hrs by sulforhodamine B assay relative to control; conditions: TK-10, 48 h, read-out: Activity
SF-268 = assay: Cytotoxicity against human SF268 cells assessed as cell growth at 100 uM after 48 hrs by sulforhodamine B assay relative to control; conditions: SF-268, 48 h, read-out: Activity
HCT-15 = assay: Cytotoxicity against human HCT15 cells assessed as cell growth at 100 uM after 48 hrs by sulforhodamine B assay relative to control; conditions: HCT-15, 48 h, read-out: Activity
786-0 [12] = assay: Cytotoxicity against human 786-0 cells assessed as cell growth at 1 uM after 48 hrs by sulforhodamine B assay relative to control; conditions: 786-0, 48 h, read-out: Activity
MDA-MB-435 = assay: Cytotoxicity against human MDA-MB-435 cells assessed as cell growth at 1 uM after 48 hrs by sulforhodamine B assay relative to control; conditions: MDA-MB-435, 48 h, read-out: Activity
KM12 [13] = assay: Cytotoxicity against human KM12 cells assessed as cell growth at 1 uM after 48 hrs by sulforhodamine B assay relative to control; conditions: KM12, 48 h, read-out: Activity
SN12C [14] = assay: Cytotoxicity against human SN12C cells assessed as cell growth at 1 uM after 48 hrs by sulforhodamine B assay relative to control; conditions: read-out: Activity
OVCAR-3 = assay: Cytotoxicity against human OVCAR3 cells assessed as growth inhibition after 48 hrs by sulforhodamine B assay; conditions: OVCAR-3, 48 h
SNB-19 = assay: Cytotoxicity against human SNB19 cells assessed as cell growth at 0.1 uM after 48 hrs by sulforhodamine B assay relative to control; conditions: SNB-19, 48 h, read-out: Activity
CCRF-CEM [15] = assay: Cytotoxicity against human CCRF-CEM cells assessed as cell growth at 100 uM after 48 hrs by sulforhodamine B assay relative to control; conditions: read-out: Activity
NCI/ADR-RES = assay: Cytotoxicity against human NCI/ADR-RES cells assessed as cell growth at 1 uM after 48 hrs by sulforhodamine B assay relative to control; conditions: read-out: Activity
786-0 [16] = assay: Cytotoxicity against human 786-0 cells assessed as cell growth at 10 uM after 48 hrs by sulforhodamine B assay relative to control; conditions: 786-0, 48 h, read-out: Activity
SF-539 [17] = assay: Cytotoxicity against human SF539 cells assessed as cell growth at 1 uM after 48 hrs by sulforhodamine B assay relative to control; conditions: SF-539, 48 h, read-out: Activity
PC-3 [18] = assay: Cytotoxicity against human PC3 cells assessed as growth inhibition after 48 hrs by sulforhodamine B assay; conditions: PC-3, 48 h

COc1ccc(C(=O)/C=C/c2cc(-c3cc(OC)c(OC)c(OC)c3)n[nH]2)cc1
growth at 10 µM (RPMI-8226): -41% | LC50 (T47D [1]): > 100 µM | TGI (T47D [1]): 13 µM | growth at 100 µM (HCC 2998): -82% | growth at 0.01 µM (KM12 [2]): 99% | growth at 1 µM (UACC-62): 95% | growth at 100 µM (SK-MEL-5): -93% | growth at 0.1 µM (PC-3 [3]): 95% | growth at 100 µM (Hs-578T): 5% | LC50 (SK-MEL-28): 9.23 µM | TGI (SK-MEL-28): 4.42 µM | growth at 1 µM (COLO 205): 94% | growth at 0.1 µM (SF-539 [4]): 99% | growth at 1 µM (IGROV-1): 101% | growth at 10 µM (TK-10 [5]): -29% | growth at 0.1 µM (T47D [6]): 93% | growth at 0.1 µM (SN12C [7]): 96% | growth at 10 µM (CCRF-CEM [8]): -19% | growth at 0.01 µM (T47D [9]): 96% | growth at 0.1 µM (NCI-H460): 102% | growth at 100 µM (MDA-MB-468): -78% | growth at 0.01 µM (U-251): 97% | growth at 10 µM (SN12C [10]): -69% | growth at 0.01 µM (HCT-116): 100% | growth at 0.1 µM (TK-10 [11]): 93% | growth at 100 µM (SF-268): -37% | growth at 100 µM (HCT-15): -33% | growth at 1 µM (786-0 [12]): 94% | growth at 1 µM (MDA-MB-435): 92% | growth at 1 µM (KM12 [13]): 83% | growth at 1 µM (SN12C [14]): 91% | LC50 (OVCAR-3): 7.27 µM | TGI (OVCAR-3): 3.56 µM | growth at 0.1 µM (SNB-19): 88% | growth at 100 µM (CCRF-CEM [15]): -16% | growth at 1 µM (NCI/ADR-RES): 90% | growth at 10 µM (786-0 [16]): -59% | growth at 1 µM (SF-539 [17]): 87%

COc1ccc(-c2cc(/C=C/C(=O)c3ccc4c(c3)OCO4)[nH]n2)cc1OC
GI50 (T47D [1]): 1.36 µM | GI50 (SK-MEL-28): 1.82 µM | GI50 (PC-3 [18]): 1.98 µM | GI50 (OVCAR-3): 1.96 µM

COc1ccc(C(=O)/C=C/c2cc(-c3ccc4c(c3)OCO4)n[nH]2)cc1OC
growth at 10 µM (RPMI-8226): -20% | GI50 (T47D [1]): 3.23 µM | LC50 (T47D [1]): > 100 µM | TGI (T47D [1]): 26.1 µM | growth at 100 µM (HCC 2998): -86% | growth at 0.01 µM (KM12 [2]): 99% | growth at 1 µM (UACC-62): 98% | growth at 100 µM (SK-MEL-5): -95% | growth at 0.1 µM (PC-3 [3]): 95% | growth at 100 µM (Hs-578T): -5% | LC50 (SK-MEL-28): 48.6 µM | TGI (SK-MEL-28): 19.3 µM | growth at 1 µM (COLO 205): 101% | growth at 0.1 µM (SF-539 [4]): 95% | growth at 1 µM (IGROV-1): 93% | growth at 10 µM (TK-10 [5]): -5% | growth at 0.1 µM (T47D [6]): 94% | growth at 0.1 µM (SN12C [7]): 95% | growth at 10 µM (CCRF-CEM [8]): -2% | growth at 0.01 µM (T47D [9]): 90% | growth at 0.1 µM (NCI-H460): 102% | growth at 100 µM (MDA-MB-468): -85% | growth at 0.01 µM (U-251): 90% | growth at 10 µM (SN12C [10]): 11% | growth at 0.01 µM (HCT-116): 105% | growth at 0.1 µM (TK-10 [11]): 92% | growth at 100 µM (SF-268): -74% | growth at 100 µM (HCT-15): 2% | growth at 1 µM (786-0 [12]): 94% | growth at 1 µM (MDA-MB-435): 96% | growth at 1 µM (KM12 [13]): 94% | GI50 (PC-3 [18]): 2.58 µM | LC50 (PC-3 [18]): > 100 µM | TGI (PC-3 [18]): 18.2 µM | growth at 1 µM (SN12C [14]): 91% | LC50 (OVCAR-3): 14.3 µM | TGI (OVCAR-3): 4.61 µM | growth at 0.1 µM (SNB-19): 89% | growth at 100 µM (CCRF-CEM [15]): -13% | growth at 10 µM (786-0 [16]): 5% | growth at 1 µM (SF-539 [17]): 88%

COc1cc(-c2cc(/C=C/C(=O)c3ccc(Cl)c(Cl)c3)[nH]n2)cc(OC)c1OC
growth at 10 µM (RPMI-8226): -7% | LC50 (T47D [1]): > 100 µM | TGI (T47D [1]): 15.7 µM | growth at 100 µM (HCC 2998): -50% | growth at 0.01 µM (KM12 [2]): 96% | growth at 1 µM (UACC-62): 96% | growth at 100 µM (SK-MEL-5): -30% | growth at 0.1 µM (PC-3 [3]): 100% | growth at 100 µM (Hs-578T): 3% | LC50 (SK-MEL-28): > 100 µM | TGI (SK-MEL-28): 66 µM | growth at 1 µM (COLO 205): 54% | growth at 0.1 µM (SF-539 [4]): 94% | growth at 1 µM (IGROV-1): 99% | growth at 10 µM (TK-10 [5]): 46% | growth at 0.1 µM (T47D [6]): 87% | growth at 0.1 µM (SN12C [7]): 96% | growth at 10 µM (CCRF-CEM [8]): 9% | growth at 0.01 µM (T47D [9]): 90% | growth at 0.1 µM (NCI-H460): 105% | growth at 100 µM (MDA-MB-468): -37% | growth at 0.01 µM (U-251): 97% | growth at 10 µM (SN12C [10]): 56% | growth at 0.01 µM (HCT-116): 102% | growth at 0.1 µM (TK-10 [11]): 91% | growth at 100 µM (SF-268): -15% | growth at 1 µM (786-0 [12]): 91% | growth at 1 µM (MDA-MB-435): 90% | growth at 1 µM (KM12 [13]): 85% | LC50 (PC-3 [18]): > 100 µM | TGI (PC-3 [18]): > 100 µM | growth at 1 µM (SN12C [14]): 91% | LC50 (OVCAR-3): > 100 µM | TGI (OVCAR-3): 37.8 µM | growth at 0.1 µM (SNB-19): 92% | growth at 100 µM (CCRF-CEM [15]): -15% | growth at 1 µM (NCI/ADR-RES): 92% | growth at 10 µM (786-0 [16]): 50% | growth at 1 µM (SF-539 [17]): 88%
